Patent publication US9050278B2, “Scavenger of in vivo harmful reactive oxygen species and/or free radicals” (priority 2005, dated 2015)
Where two headings read alike, the source gives them in different places.

Columns and labels:
[1] = system: cytochrome c; test: Reduction of cytochrome c in hydrogen water; assay type: biochemical; settings: neutral solution saturated with hydrogen molecules, room temperature
Description: (§1) First, 1 l of water was injected into a 5-l pressure-resistant bottle (manufactured by UNICONTROLS. CO., LTD.).
(§2) After reaction at room temperature for 30 minutes, absorbance at 415, 400, and 340 nm, respectively, were measured with a spectrophotometer.

[2] = Reduction of NAD+ in hydrogen water; assay type: biochemical; settings: neutral solution saturated with hydrogen molecules, room temperature
Description: as §1, §2

[3] = system: PC12 cells; test: Cell death induced by antimycin A, viable cell count; assay type: cell-based, Rat
Description: (§3) The cells were cultured with an incubator at 37° C. under 5% CO2.
(§4) The cells were cultured at 37° C. in a sealed state. […] The cells were cultured at 37° C.
(§5) After 24 hours, the number of viable cells having a pyramid-shaped cell form was counted under a phase contrast microscope.
(§6) PC12 cells were cultured in a collagen-coated 24-well cell culture dish (manufactured by IWAKI&Co. Ltd.). […] After 0, 1, 2, and 3 days, the number of viable cells having a pyramid-shaped cell form was counted under a phase contrast microscope.
as §6, with “Cell death was induced by antimycin A or menadione in the same way as in Examples 2 and 3. […] First, PC12” for “PC12”, “24 hours,” for “0, 1, 2, and 3 days,”
as §5

[4] = system: PC12 cells; settings: antimycin A 10 μg/ml, 0.6 mM hydrogen, 30 minutes
Description: (§7) To generate .OH via O2^−., antimycin A was added to cells. […] The cells were cultured at 37° C.
(§8) In .OH detection, HPF (0.4 μM) was added to a cell medium, and the fluorescence image thereof was observed using a confocal laser scanning microscope (FV300 manufactured by Olympus Corp.) at an excitation wavelength of 488 nm and an […] wavelength of 510 nm. MitoTracker Green (1 μM; Molecular Probes) and MitoTracker Red (100 nM; Molecular Probes) were used in the staining of mitochondria. Anti-HNE and anti-8-OH-G antibodies were purchased from Nikken Seil Co., Ltd. Moreover, anti-TUJ-1 and anti-GFAP antibodies were purchased from Babco and Immunon, respectively.

[5] = Elimination of superoxide by hydrogen water; assay type: biochemical; settings: neutral solution saturated with hydrogen molecules, room temperature
Description: as §1
For superoxide (O2^−.), 25× Reaction Buffer, Xanthine Solution, and NBT Solution contained in […] […] Then, a Xanthine oxidase solution was added thereto to thereby generate O2^−.. NBT-diformazan accumulation was measured over time with a spectrophotometer at 550 nm.
as §2

[6] = Reduction of FAD in hydrogen water; assay type: biochemical; settings: neutral solution saturated with hydrogen molecules, room temperature
Description: as §1, §2

[7] = system: ischemia-reperfusion injury in the liver; settings: untreated 74
Source text: Mice (C57BL/6 line, 5 week old, male) were put under general anesthesia by supplying mixed anesthetic gases (oxygen: 0.3 L/min., nitrous oxide: 0.7 L/min., Sevofrane (Maruishi Pharmaceutical Co., Ltd.): 3%) thereto with a small animal general anesthesia machine Soft Lander (Neuroscience Inc.). After anesthesia introduction, the anesthesia was maintained for a long time by supplying thereto a mixed anesthetic gas containing Sevofrane at a concentration reduced to 1.5% (oxygen: 0.3 L/min., laughing gas: 0.7 L/min., Sevofrane: 1.5%). Surgical skills (reference: Yadav, S. S. et al., Transplantation 65, 1433-1436 (1998)) shown below were used to prepare model animals with local ischemia-reperfusion injury in the liver. The model animals were examined by hematoxylin-eosin staining (H&E staining) for tissue degeneration in the ischemic liver and hepatic parenchymal cell death induced by ischemia-reperfusion injury.
The belly was opened in the middle thereof. Three canals, portal vein, hepatic artery, and bile duct, leading to the left robe of the liver were together blocked (ischemia start) with a micro-clamp (FD562; Aesculap, South San Francisco, Calif., USA). The belly was sutured with a silk thread. After 90 minutes, the belly was opened again by removing the silk thread used for suture, and the micro-clamp was removed (reperfusion start). The belly was sutured again with a silk thread. The left robe of the liver was reperfused for 3 hours under anesthesia. […] After reperfusion for 3 hours, the left robe of the liver (ischemic liver) was excised and cut into fine strip slices. The slices were fixed by dipping in 10% neutral buffered formalin solution (Wako Pure Chemical Industries, Ltd.).
The fixed ischemic liver slices were subjected to dehydration with ethyl alcohol, dehydrating agent removal with xylene, and paraffin infiltration in an automatic embedding apparatus (SAKURA, Tissue-Tek VIPS). The paraffin-embedded ischemic liver was cut into slices of 3 μm to 5 μm in thickness with a sledge microtome. The slices were attached to slide glass. […]

[8] = hydrogen pressure of 1 atm and room temperature; cited from earlier work
[9] = system: cerebral ischemia-reperfusion injury
Description: In cerebral ischemia, diverse mechanisms generate reactive oxygen species, and .OH is detected after ischemia-reperfusion. Rats were rendered locally ischemic for 90 minutes by mild cerebral artery occlusion and subsequently reperfused for 30 minutes. […] FK506 (1 mg/kg of body weight) was administered into the blood once immediately before reperfusion. Edaravone (3 mg/kg of body weight) was administered into the blood twice immediately before reperfusion and immediately after reperfusion. After anesthesia, the rats were maintained at 20° C. under usual air. […] After 1 day of mild cerebral artery occlusion, the brain was sliced, and the slices were stained with 2,3,5-triphenyltetrazolium salt (TTC) capable of serving as a substrate in mitochondrial respiration process. After 1 week, the animals were put under anesthesia. Then, the brain was rapidly excised and fixed with 10% formalin. The paraffin-embedded brain was sliced into a thickness of 6 μm, and the slices were stained with hematoxylin-eosin. Moreover, VECSTAIN ABC Kit was used in staining with antibodies. Anti-Iba-I antibodies were purchased from Wako Pure Chemical Industries, Ltd. Image analysis software (Mac Scope ver. 2.55; Mitsuya Shoji) was used in slide analysis. All the animal experiments were conducted according to the guideline of the animal commission of Nippon Medical School.
An infarct volume was estimated by measuring visually white regions in the brain. […] For comparison, two compounds were further tested. […] The other compound was FK506, which is under clinical trial for cerebral infarction in USA. […] The brain infarct volume was calculated as a total sum of all the slices according to the equation: infarct area×thickness.
Rats were rendered locally ischemic for 90 minutes by mild cerebral artery occlusion and subsequently reperfused for 30 minutes. […] The brain was cut by coronal section into 6 slices after 1 day of mild cerebral artery occlusion, and the slices were stained with TTC.
The photographs of FIG. 28 are the staining images of 3 different slices obtained by this method. […] An average value of infarct volumes and standard deviation were determined from the values of 6 animals in each group. *P<0.05, **P<0.01, ***P<0.001.
The brain was fixed after 3 days or 7 days of mild cerebral artery occlusion and embedded in paraffin. The coronal sections of 6 μm in thickness were stained with anti-8-OH-G, anti-HNE, or anti-GFAP antibodies. The left photographs of FIGS. 31 to 33 show the same regions adjacent to occlusion in the temporal cortical regions. The scale bar denotes 100 μm.
In the staining experiment, the brain was fixed after 3 days or 7 days of mild cerebral artery occlusion and embedded in paraffin. The coronal sections were stained with each antibody. The photographs of FIG. 34 show the central regions of occlusion in the temporal cortical regions. The scale bar of FIG. 34 denotes 200 μm. The scale bar in the inserted photographs of FIG. 34 denotes 100 μm. In FIG. 35, an average value of the number of Iba-1-positive cells in a certain field and standard deviation were determined from 6 animals in each group. *P<0.05. […] Microglia accumulation serves as an indicator for a brain disorder.

[10] = Elimination of hydrogen peroxide by hydrogen water; assay type: biochemical; settings: neutral solution saturated with hydrogen molecules, room temperature
Description: as §1
After reaction at room temperature for 30 minutes, 0.2 M phosphate buffer (pH 7.2) containing an equal amount of 20 μM DCFDA was subsequently added thereto. After reaction for 10 minutes, the amount of H2O2 remaining was measured with a fluorescence analyzer at an excitation wavelength of 485 nm.
as §2

[11] = system: PC12 cells; test: Cell death induced by menadione, viable cell count; assay type: cell-based, Rat
Description: as §3, §4, §5, §6
as §6, with “Cell death was induced by antimycin A or menadione in the same way as in Examples 2 and 3. […] First, PC12” for “PC12”, “24 hours,” for “0, 1, 2, and 3 days,”

[12] = system: skeletal muscle
Description: It has been known that strenuous exercise and the sudden stop of exercise generate free radicals and damage various tissues including muscles. […] Rats (Wister Rats, 8 week old, male) were run at a speed of 40 m/min. for 20 minutes. […] After 30 minutes, the rats were slaughtered. The skeletal muscle was excised. […] The method was conducted according to Sakai, Y., Iwamura, Y., Hayashi, J., Yamamoto, N., Ohkoshi, N., Nagata, H., Acute exercise causes mitochondrial DNA deletion in rat skeletal muscle., Muscle and Nerve 22: 256-261, 1999.

[13] = system: cerebral cortex-derived primary cultured neuronal cells
Description: Rat cerebral cortex-derived primary cultured cells were used to induce oxidative stress under more physiological conditions.
Rat cerebral cortex-derived primary cultured neuronal cells were prepared from a 16-day-old fetus. The cerebral cortex was cut after meninges removal and digested with a protease mixed solution (SUMILON). The slices were mechanically dissociated with a pipette. Then, the cells were dispersed in a nerve cell culture medium (SUMILON) and seeded at a cell density of 5×10^4 cells/cm^2 in a plate coated with poly-L-lysine. The medium was replaced every three days by Neurobasal Medium (Gibco) containing B-27 (Gibco). The cells cultured for 11 days were used in the experiment. One day before the creation of an oxygen-glucose-deficient state, the medium was replaced by Neurobasal Medium (Gibco) containing B-27 minus AO (Gibco). […] 90% or more of the cells were neuronal cells.
To terminate the oxygen-glucose-deficient state, the medium was replaced again by the medium used before replacement. Culture was further continued at 37° C. in 95% air/5% carbon dioxide atmosphere.
After 10 minutes of the termination of the oxygen-glucose-deficient state, the amount of .OH was measured based on HPF fluorescence. […] To prepare a control, cells were treated with a DMEM medium containing glucose and oxygen, instead of being exposed to an oxygen-glucose-deficient state. […] An average value and standard deviation was determined from 4 independent experiments. **P<0.01.
After 1 day of oxygen-glucose deficiency, the viable neuronal cells were further detected by staining neuron-specific anti-TUJ-1 antibody. […] Average values and standard deviations shown in FIGS. 23 and 24 were determined from 4 independent experiments. ^#<0.0001 in FIG. 23, *P<0.05 in FIG. 24.

[14] = Elimination of nitrogen monoxide by hydrogen water; assay type: biochemical; settings: neutral solution saturated with hydrogen molecules, room temperature
Description: First, 1 l of water was injected into a 5-l pressure-resistant bottle (manufactured by UNICONTROLS. CO., LTD.). […] After reaction at room temperature for 30 minutes, 1 μM 5-(and -6)-chloromethyl-2′,7′-dichlorodihydrofluorescein diacetate (DCFDH; manufactured by Molecular Probe, USA) was subsequently added thereto. The amount of NO remaining was measured with a fluorescence analyzer (manufactured by TECAN, Austria) at an excitation wavelength of 485 nm. […] After reaction at room temperature for 30 minutes, absorbance at 415, 400, and 340 nm, respectively, were measured with a spectrophotometer.

[15] = neutral solution saturated with hydrogen molecules, room temperature
[16] = neutral solution saturated with hydrogen molecules, room temperature; remark: listed apart in the source
[17] = room temperature, neutral conditions, without catalysts, HPF fluorescence
Source text: RF-5300PC (manufactured by Shimadzu Corp.) was used in fluorescence intensity measurement.
The .OH was monitored with a spectrofluorometer.

[18] = system: PC12 cells; settings: antimycin A 10 μg/ml, 0.6 mM hydrogen, 24 hours
Description: as §7, §8
The scale bars in FIGS. 16 and 18 denote 100 μm. Immunostaining intensities with anti-8-OH-G (FIG. 17) and anti-HNE (FIG. 19) antibodies were quantified using NIH Image software. […] Average values and standard deviations were determined from 4 independent experiments. *P<0.05, **P<0.01, ***P<0.001.

[19] = 2% hydrogen gas inhalation vs non-inhalation
[20] = brain fixed after 3 days or 7 days of occlusion

Structure (SMILES): [HH] [hydrogen molecules, hydrogen]
- reduction of oxidized cytochrome c containing trivalent heme iron [1]: does not reduce
- reduction of NAD^+ [2]: does not reduce
- durability of cell death inhibitory effects (time course) ([3]; antimycin A 30 μg/mL, 0, 1, 2 and 3 days): confirmed even on the 2nd day or later
- hydrogen concentration at which cell death could still be inhibited significantly ([3]; antimycin A 30 μg/mL, 24 hours, approximately 1/16 of the saturated hydrogen concentration): 50 µM
- .OH levels (HPF fluorescence) [4]: reduced .OH levels
- reduction of O2^−. [5]: do not reduce
- reduction of FAD [6]: does not reduce
- Degenerated region in liver tissues (%) ([7]; hydrogen gas flow rate 0.04 L/min., from 10 minutes before reperfusion start through whole reperfusion period (280 minutes in total)): 26%
- Degenerated region in liver tissues (%) ([7]; hydrogen gas flow rate 0.1 L/min., from 5 minutes before reperfusion start to 5 minutes after reperfusion start (10 minutes in total)): 20%
- Degenerated region in liver tissues (%) ([7]; hydrogen gas flow rate 0.2 L/min., from 5 minutes before reperfusion start to 5 minutes after reperfusion start (10 minutes in total)): 10%
- amount of hydrogen that can be dissolved per L of water [8]: approximately 17.5 mL per L
- body temperature [9, 19]: improved
- body weight [9, 19]: improved
- brain infarct volume (TTC staining) ([9]; 2% hydrogen gas inhaled only during ischemia but not during reperfusion, 1 day): not reduced
- most effective hydrogen concentration for reduction of infarct volume ([9]; 1 day after occlusion, inhaled gas 0 to 4% (v/v) hydrogen): 2%
- brain infarct volume (TTC staining) ([9]; 1 day after occlusion, inhaled hydrogen 0 to 4% (v/v) for 120 minutes in total): Hydrogen concentration-dependent reductions in infarct volume were obviously observed
- alleviation of an oxidative disorder compared with Edaravone and FK506 ([9]; Edaravone 6 mg/kg of body weight, FK506 1 mg/kg of body weight): more effective for the alleviation of an oxidative disorder than any of the other compounds tested
- difference in infarct volume between hydrogen-treated and hydrogen-untreated group (hematoxylin-eosin) ([9]; after 1 week of occlusion): more significant after 1 week
- oxidation marker stainings (anti-8-OH-G, anti-HNE, anti-GFAP positive cells) [9, 20]: significantly reduced
- staining with microglia-specific anti-Iba-I antibodies [9, 20]: significantly reduced
- reduction of hydrogen peroxide [10]: do not reduce
- durability of cell death inhibitory effects (time course) ([11]; menadione 10 μM, 0, 1, 2 and 3 days): confirmed even on the 2nd day or later
- deletion in mitochondrial DNA (PCR) ([12]; rats after exercise that ingested hydrogen (inhalation or intraperitoneal saline containing supersaturated hydrogen)): reduced
- damage in the muscular tissues (H&E staining) ([12]; rats run 40 m/min. for 20 minutes, then air containing 10% hydrogen gas for 30 minutes): alleviate damage in the muscular tissues
- increase in the amount of .OH (HPF fluorescence) ([13]; 10 minutes after termination of 60 minutes oxygen-glucose-deficient state, 95% hydrogen/5% carbon dioxide vs nitrogen): not observed in the presence of hydrogen
- number of viable neuronal cells ([13]; 1 day after oxygen-glucose deficiency, anti-TUJ-1 staining): increased the number of viable neuronal cells
- viability of neuronal cells (cell count, modified MTT method) ([13]; 1 day after oxygen-glucose-deficient state): increased their viabilities
- reduction of nitrogen monoxide [14]: do not reduce
- reduction of Fe^3+ [15]: does not reduce
- reduction of Cu^2+ [16]: does not reduce
- hydroxyl radicals (.OH) levels [17]: reduce hydroxyl radicals (.OH) levels
- accumulation of 4-hydroxy-2-nonenal (HNE) [18]: inhibition of accumulation
- oxidized guanine (8-OH-G) level [18]: protected nuclear DNA from oxidation

Structure (SMILES): Cc1c(C)c2c(c(C)c1O)CC[C@@](C)(CCC[C@H](C)CCC[C@H](C)CCCC(C)C)O2 [alpha-tocopherol, reference compound]
- number of viable cells / inhibitory effects on cell death ([3]; antimycin A 10 μg/mL, 24 hours, vs hydrogen-free medium, alpha-tocopherol 100 μM (Example 5)): observed, albeit weaker than those of hydrogen
- number of viable cells / inhibitory effects on cell death ([11]; menadione 3 μM, 24 hours, vs hydrogen-free medium, alpha-tocopherol 100 μM (Example 5)): significant effects on menadione were not observed
